Earlier results on two compounds are cited in patent US20240360088A1, “WATER-SOLUBLE NERVE DYES FOR IN VIVO NERVE-SPECIFIC IMAGING” (Oregon Health & Science University, priority 2021, published 2024).

The data set deals with rodent nerves. The following applies: for nerve specificity: direct and systemic administration, preclinical.

On to `CCNc1cc2oc3cc(=[N+](CC)CC)ccc-3nc2cc1C` [Comparative Example No. 1, 3-(diethyl-14-azaneylidene)-N-ethyl-8-methyl-3H-phenoxazin-7-amine], for which the nerve specificity result is on record as “high nerve specificity”. The “fluorescence signal for real time imaging” value (co-solvent formulation as vehicle for intravenous injection) was “adequate fluorescence signal”.

As for `CC/N=c1/cc2oc3cc(NCC)c(C)cc3nc-2cc1C` [Oxazine 4], the nerve specificity entry is given as “high nerve specificity”. For the same compound, under “systemic administration”, the nerve-specific signal entry is “nerve-specific signal following systemic administration in all rodent nerves”.
